Results from patent EP0079792A2, “Process for production of urease” (priority 1981, dated 1983).

Experiments:
[1] = system: urease from Arthrobacter parafineus ATCC 15591; test: Km determination, crude enzymatic solution (Example 2); type: biochemical
Method: The above reagents are mixed with each other and incubated at 37°C for 5 minutes. To the mixture is added 0.01 ml of an enzyme solution, the enzymatic activity of which is to be determined. The absorba^ncy at OD340nm (=E1) after one minute and that at OD340nm (=E2) after two minutes are recorded at 37°C on a spectrophotometer, respectively.
In this example, each of the strains identified in the following Table 1 is cultured in the same manner as described in Example 1 to obtain microbial cells. From the microbial cells, a crude enzymatic solution is prepared to culculate the enzymatic activity and to determine the Km value.

[2] = substrate: NC(N)=O; test: purified protein, by the assay type; settings: other: phosphate buffer (pH 7.5), purified enzyme preparate of Example 1

Molecule | Km [1] | Km [2]
NC(N)=O [urea] | 20 mM | 
urease from Corynebacterium lilium ATCC 21644 (Corynebacterium glutamicum ATCC 13032) (protein) MSFEISRKQYTDLYGPTVGDSVRLADTELFLCVEKDYAAIGEEVAFGGGKVIRDGMGQNGTLVRDVDIPDTVITNVIVLDYTGVYKADVALRDGKIFRIGKAGNPNVMENVDIVIGVATDIIAGEGKILTAGGIDTHVHFLGTDQVNTALASGITTMIGGGTGPSQASMATTVTPGQWNTYNMLSAFEGMPMNFGILGKGHGSSKSPLAEQVRAGAIGLKIHEDWGATPSSINTALEVADDMDIQVALHSDTLNEAGFVEDTIEAIAGRVIHTFHTEGAGGGHAPDLIRVAALPNVLPASTNPTLPYTRNTVEEHLDMVMVAHHLNPDIPEDVAFADSRIRAETIAAEDVLHDMGIFSITSSDSQAMGRVGETITRTWQVADHMKRTRGSLTGDAPYNDNNRLRRFIAKYTINPAIAHGVDYVVGSVEEGKFADLVLWDPKFFGVKPDLVIKGGLMVNSLMGDSNGSIPTPQPRTLRNTWGAFGQAVSRSSITFLSQDAIDANVPDLLNLRKQIRGVRGVRNLTKRDMKLNAEMPDIRVDPETYQVFVNGELITSKPAETVPMARRYFLF |  | 20 mM
